Measurements taken from US5614408A, “Monoclonal antibodies to potato, tomato, and eggplant glycoalkaloids and assays for the same” (priority 1995, dated 1997).

Tests used:
Format in all cases: binding, mouse
[1] = tested on: monoclonal antibody Sol-8; assay: competitive inhibition ELISA (c-ELISA), monoclonal antibody Sol-8; conditions: Sol-8 (IgG2a); ± one standard deviation
Description: (§1) Five, 6 month old BALB/c mice were injected with 50 μl of the solanidine-KLH conjugate mixed 1:1 with Ribi adjuvant (Ribi Immunochem Research Inc., Hamilton, Mont.). The mice received half the dose intraperitoneally and half intramuscularly every other week for a total of three injections. One month later, and 4 days prior to fusion, a selected mouse was given an intraperitoneal injection of 50 μl of solanidine-KLHconjugate in sterile saline. The spleen was removed and the splenocytes fused with SP2/O myeloma cells as described by Stanker et al. (1986, J. Immunol., 136:4174-4180), the contents of which are incorporated by reference herein. The fused cells were plated over 30 96-well microculture plates previously coated with mouse peritoneal exudate cells (macrophage) and grown under conditions described by Elissalde et al. (1993, J. Agric. Food Chem., 41:2167-2171), the contents of which are also incorporated by reference herein.
(§2) db-ELISA. A modification of a direct-binding ELISA described by Stanker et al. (1993, J. Agric. Food Chem., 41:1332-1336), the contents of which are incorporated by reference herein, was used to screen the culture fluids from the growing hybridomas for antibodies to solanidine. Microtiter plates (Nunc Maxisorb, Roskilde, Denmark; or Costar high binding plates, Costar Corp., Wilmington, Mass.) were coated with SOL-BSA by addition of 100 μl/well of a 1 μg/ml solution of SOL-BSA in distilled water. The SOL-BSA was incubated in uncovered plates at 37° C. for 18 hr to evaporate the liquid and allow the SOL-BSA to coat the bottom of the microtiter wells. The "coated" plates were then stored in sealed plastic bags at 4° C. and used within 2 weeks. Nonreacted sites on the plates were blocked by adding 400 μl of a 3% solution of nonfat dry milk (NFDM) in assay buffer (0.1M Tris, 0.15M NaCl, 10 mg/ml nonfat dry milk, 0.001% Tween 20, 0.02% sodium azide) and incubating the plates at room temperature for 1 hr. The blocking solution was then discarded and 100 μl of the hybridoma supernatant(s) or anti-solanidine Mab (from ascites fluid) was added, and the plates incubated for 1 hr at 37° C. After incubation, the plates were washed with a solution of 0.05% TWEEN-20 in water, and peroxidase conjugated goat anti-mouse antiserum (Sigma Inc., St. Louis, Mo.), diluted 1:500 in assay buffer, was then added to each well. Following a second 1 hr incubation at 37° C., the plates were washed as described above. Finally, the substrate, 2,2'-azino-bis(ethylbenzthiazole-6-sulfonic acid) (ABTS), was added. Absorbance was measured at 405 nm and the resulting data analyzed by computer using an Excel (Microsoft, Redmond, Wash.) spreadsheet program.
(§3) c-ELISA. The competitive inhibition ELISA for solanidine and other glycoalkaloids was carried out as previously described for other compounds by Stanker et al. (1993, ibid). Briefly, to each well of an antigen (glycoalkaloid or aglycone) coated, non-fat-milk-blocked, microtiter plate prepared as described in the db-ELISA was added 100 μl of assay buffer. Competitors (free solanidine and other glycoalkaloids and aglycones, and four structurally related steroids cholesterol, digitonin, βsitosterol, and stigmasterol, shown in Table 1) dissolved in 100 μl of assay buffer were added to the microassay plate and serially diluted (a 2-fold series). Next, 100 μl of assay buffer containing a predetermined amount of anti-solanidine monoclonal antibody prepared above was added to each well. The amount of anti-alkaloid antibody added was the concentration (dilution from tissue culture supernatant) resulting in approximately 50% of maximum binding or signal in a direct-binding ELISA where no competitor was present. The plates were sealed with plastic wrap, incubated for 1 hr at 37° C., and then processed as described in the db-ELISA to detect bound antibody. […]

[2] = tested on: monoclonal antibody Sol-59; assay: competitive inhibition ELISA (c-ELISA), monoclonal antibody Sol-59; conditions: Sol-59 (IgG2a); ± one standard deviation
Description: as §1, §2, §3

[3] = tested on: monoclonal antibody Sol-91; assay: competitive inhibition ELISA (c-ELISA), monoclonal antibody Sol-91; conditions: Sol-91 (IgG2a); ± one standard deviation
Description: as §1, §2, §3

[4] = tested on: monoclonal antibody Sol-55; assay: competitive inhibition ELISA (c-ELISA), monoclonal antibody Sol-55; conditions: Sol-55 (IgG2a); ± one standard deviation
Description: as §1, §2, §3

[5] = tested on: eleven monoclonal antibodies; assay: competitive inhibition ELISA (c-ELISA), all eleven monoclonal antibodies; conditions: in words
Description: as §1, §2
c-ELISA. […]

[6] = tested on: monoclonal antibody Sol-54; assay: competitive inhibition ELISA (c-ELISA), monoclonal antibody Sol-54; conditions: Sol-54 (IgG2a); ± one standard deviation
Description: as §1, §2, §3

[7] = tested on: monoclonal antibody Sol-106; assay: competitive inhibition ELISA (c-ELISA), monoclonal antibody Sol-106; conditions: Sol-106 (IgG2a); ± one standard deviation
Description: as §1, §2, §3

[8] = tested on: monoclonal antibody Sol-71; assay: competitive inhibition ELISA (c-ELISA), monoclonal antibody Sol-71; conditions: Sol-71 (IgG2a); ± one standard deviation
Description: as §1, §2, §3

[9] = tested on: monoclonal antibody Sol-67; assay: competitive inhibition ELISA (c-ELISA), monoclonal antibody Sol-67; conditions: Sol-67 (IgG1); ± one standard deviation
Description: as §1, §2, §3

[10] = tested on: monoclonal antibody Sol-68; assay: competitive inhibition ELISA (c-ELISA), monoclonal antibody Sol-68; conditions: Sol-68 (IgG1); ± one standard deviation
Description: as §1, §2, §3

[11] = tested on: monoclonal antibody Sol-129; assay: competitive inhibition ELISA (c-ELISA), monoclonal antibody Sol-129; conditions: Sol-129 (IgG1); ± one standard deviation
Description: as §1, §2, §3

SMILES	IC50 [1]	IC50 [2]	IC50 [3]	IC50 [4]	cross-reaction of the antibodies [5]	IC50 [6]	IC50 [7]	IC50 [8]	IC50 [9]	IC50 [10]	IC50 [11]
CC[C@H](CC[C@@H](C)[C@H]1CC[C@H]2[C@@H]3CC=C4C[C@@H](O)CC[C@]4(C)[C@H]3CC[C@]12C)C(C)C [β-sitosterol]	nc (no competition at 10,000 ppb)	nc (no competition at 10,000 ppb)	nc (no competition at 10,000 ppb)	nc (no competition at 10,000 ppb)	None of the eleven antibodies cross-reacted	nc (no competition at 10,000 ppb)	nc (no competition at 10,000 ppb)	nc (no competition at 10,000 ppb)	nc (no competition at 10,000 ppb)	nc (no competition at 10,000 ppb)	nc (no competition at 10,000 ppb)
C[C@@H]1CC[C@@]2(OC1)O[C@H]1[C@@H](O)[C@H]3[C@@H]4CC[C@H]5C[C@@H](O[C@@H]6O[C@H](CO)[C@H](O[C@@H]7O[C@H](CO)[C@@H](O)[C@H](O[C@@H]8OC[C@@H](O)[C@H](O)[C@H]8O)[C@H]7O[C@@H]7O[C@H](CO)[C@H](O)[C@H](O[C@@H]8O[C@H](CO)[C@@H](O)[C@H](O)[C@H]8O)[C@H]7O)[C@H](O)[C@H]6O)[C@H](O)C[C@]5(C)[C@H]4CC[C@]3(C)[C@H]1[C@@H]2C [digitonin]	nc (no competition at 10,000 ppb)	nc (no competition at 10,000 ppb)	nc (no competition at 10,000 ppb)	nc (no competition at 10,000 ppb)	None of the eleven antibodies cross-reacted	nc (no competition at 10,000 ppb)	nc (no competition at 10,000 ppb)	nc (no competition at 10,000 ppb)	nc (no competition at 10,000 ppb)	nc (no competition at 10,000 ppb)	nc (no competition at 10,000 ppb)
CC[C@H](/C=C/[C@@H](C)[C@H]1CC[C@H]2[C@@H]3CC=C4C[C@@H](O)CC[C@]4(C)[C@H]3CC[C@]12C)C(C)C [stigmasterol]	nc (no competition at 10,000 ppb)	nc (no competition at 10,000 ppb)	nc (no competition at 10,000 ppb)	nc (no competition at 10,000 ppb)	None of the eleven antibodies cross-reacted	nc (no competition at 10,000 ppb)	nc (no competition at 10,000 ppb)	nc (no competition at 10,000 ppb)	nc (no competition at 10,000 ppb)	nc (no competition at 10,000 ppb)	nc (no competition at 10,000 ppb)
